By melting point is commonly meant the temperature, or range, at which the solid turns liquid. `O[C@@H]1Cc2cccc(Nc3cc(-c4ccc(C(F)(F)F)cc4)ncn3)c2C[C@H]1O` (racemic) [Example 28, (±)-5-(6-(4-(Trifluoromethyl)phenyl)pyrimidin-4-ylamino)-1,2,3,4-tetrahydronaphthalene-2,3-trans-diol]: the melting point was in the range of 286 to 289 °C. Next, `O[C@@H]1Cc2c(cccc2Nc2cc(-c3ccc(C(F)(F)F)cc3)ncn2)C[C@@H]1O` (racemic) [Example 30, (±)-5-(6-(4-(Trifluoromethyl)phenyl)pyrimidin-4-ylamino)-1,2,3,4-tetrahydronaphthalene-2,3-cis-diol]: 231 to 232 °C.

Molecule `Nc1cc(C(F)(F)F)ccc1-c1cc(Nc2cccc3c2C[C@@H](O)[C@@H](O)C3)ncn1` (racemic) [Example 31, (±)-5-(6-(2-Amino-4-(trifluoromethyl)phenyl)pyrimidin-4-ylamino)-1,2,3,4-tetrahydronaphthalene-2,3-cis-diol] showed a melting point of 233 to 234 °C. Next, `OC1CCc2cccc(Nc3cc(-c4ccc(C(F)(F)F)cc4)ncn3)c2C1` (centres unmarked) [Example 1, 8-(6-(4-(Trifluoromethyl)phenyl)pyrimidin-4-ylamino)-1,2,3,4-tetrahydro-naphthalen-2-ol]: 178 to 179 °C; `OC1CCc2c(Br)ccc(Nc3cc(-c4ccc(C(F)(F)F)cc4)ncn3)c2C1` (centres unmarked) [Example 37, 5-Bromo-8-(6-(4-(trifluoromethyl)phenyl)pyrimidin-4-ylamino)-1,2,3,4-tetrahydronaphthalen-2-ol]: 192 °C.
